This is an account of results in DBAASP.

Structures are written as SMILES. Values after ≈ are worked out from the molar mass of the structure shown.

Test systems include Acinetobacter baumannii; Escherichia coli 09-240; Escherichia coli 09-280; Escherichia coli 170; Escherichia coli 5509; Escherichia coli ML-35p.
What all share (assay): ≥ marks a high value that may be exact or a test limit, other limits are often not marked, values filed in µg/mL are converted to µM
Test [1] relates to Candida albicans NCTC 3179.
Test [2] concerns Enterococcus faecalis NCTC 12697.
For test [3], the system named is Escherichia coli ATCC 25726.
For test [4], the system named is Escherichia coli ATCC 25922.
Test [5] has as its system Fusobacterium nucleatum NCTC 10562.
The test system of test [6] is Helicobacter pylori ATCC 43504.
The subject of test [7] is Pseudomonas aeruginosa ATCC 27853.
The subject of test [8] is Pseudomonas aeruginosa PAO239.
Test [9] concerns Staphylococcus aureus ATCC 25923.
The subject of test [10] is Stenotrophomonas maltophilia.
The subject of test [11] is Streptococcus mutans ATCC 10449.
The subject of test [12] is Acinetobacter baumannii 5821.
Test [13] deals with Enterobacter cloacae 06-267.
In test [14] the test system is Enterobacter cloacae 14-262.
The test system of test [15] is Klebsiella pneumoniae 01-239.
Test [16] relates to Klebsiella pneumoniae 01-252.
Test [17] deals with Pseudomonas aeruginosa 3599.
Test [18] relates to Pseudomonas aeruginosa 5106.
Test [19] relates to Pseudomonas aeruginosa ATCC 9027.
Test [20] has as its system Staphylococcus aureus 01-001.
Test [21] has as its system Staphylococcus aureus 06-051.
Test [22] has as its system Staphylococcus aureus ATCC 29213.
Test [23] deals with Bacillus licheniformis X39.
The subject of test [24] is Candida albicans ATCC 2002.
For test [25], the system named is Enterococcus faecium 091299.
The subject of test [26] is Psychrobacter faecalis X29.
The subject of test [27] is Rhodococcus rhodochrous X15.
In test [28] the test system is Staphylococcus carnosus KHS.
Test [29] deals with Bacillus subtilis ATCC 6633.
The subject of test [30] is Pseudomonas fluorescens ATCC 13525.
The test system of test [31] is Staphylococcus aureus ATCC 2592.
In test [32] the test system is Candida albicans NCYC 1467.
Test [33] deals with Candida parapsilosis ATCC 22019.
Test [34] deals with Enterococcus faecalis ATCC 29212.
Test [35] has as its system Staphylococcus aureus ATCC 43300.
For test [36], the system named is Staphylococcus aureus ATCC BAA-44.
The subject of test [37] is Staphylococcus aureus NCTC 10788.
Test [38] concerns Staphylococcus aureus ST1065.

The term MIC denotes the lowest concentration found to suppress growth. `CSCC[C@H](NC(=O)CN)C(=O)N[C@@H](C)C(=O)N[C@@H](CO)C(=O)N[C@@H](CCCCN)C(=O)N[C@@H](C)C(=O)NCC(=O)N[C@@H](CO)C(=O)N[C@H](C(=O)N[C@@H](CC(C)C)C(=O)NCC(=O)N[C@@H](CCCCN)C(=O)N[C@H](C(=O)N[C@@H](C)C(=O)N[C@@H](CCCCN)C(=O)N[C@H](C(=O)N[C@@H](C)C(=O)N[C@@H](CC(C)C)C(=O)N[C@@H](CCCCN)C(=O)N[C@@H](C)C(=O)N[C@@H](C)C(=O)N[C@@H](CC(C)C)C(N)=O)C(C)C)C(C)C)C(C)C` [GMASKAGSVLGKVAKVALKAAL]: the MIC against Acinetobacter baumannii was 11.3 µM (≈ 23.4 µg/mL); in test [1], at least 50 µM; in test [2], at least 100 µM; in [3], 12.5 µM (≈ 25.9 µg/mL); in [4] it was 25 µM (≈ 51.7 µg/mL); in test [5], 12.5 µM (≈ 25.9 µg/mL). For the same molecule, the MIC in test [6] was found to be 0.483 µM (≈ 1 µg/mL); in [7] it was 12.5 µM (≈ 25.9 µg/mL); in [8] it was 25 µM (≈ 51.7 µg/mL); in [9], 35.4 µM (≈ 73.2 µg/mL); in test [10], 5.66 µM (≈ 11.7 µg/mL); in test [11] it was 3.1 µM (≈ 6.42 µg/mL).

Turning to `CC[C@H](C)[C@H](N)C(=O)N[C@@H](Cc1c[nH]c2ccccc12)C(=O)N[C@@H](CO)C(=O)N[C@@H](C)C(=O)N[C@H](C(=O)N[C@@H](Cc1c[nH]c2ccccc12)C(=O)N[C@@H](CO)C(=O)NCC(=O)N[C@H](C(=O)N[C@@H](CCCCN)C(=O)NCC(=O)N[C@@H](CC(C)C)C(=O)N[C@@H](CC(C)C)C(N)=O)[C@@H](C)CC)[C@@H](C)CC` [IWSAIWSGIKGLL], the MIC in test [12] is 14 µM (≈ 20.2 µg/mL); in [13], at least 32 µM; in [14], at least 32 µM; with Escherichia coli 09-240 it was 30 µM (≈ 43.3 µg/mL); against Escherichia coli 09-280 it was at least 32 µM; in the test on Escherichia coli 170 it was at least 32 µM. The MIC with Escherichia coli 5509 is at least 32 µM; in test [4], 15 µM (≈ 21.6 µg/mL); in [15], at least 32 µM; in test [16] it was at least 32 µM; in test [17], at least 32 µM; in test [18] it was at least 32 µM. The MIC in test [7] is over 32 µM; in [19] it was 2 µM (≈ 2.89 µg/mL); in [20], 2 µM (≈ 2.89 µg/mL); in [21] it was 2 µM (≈ 2.89 µg/mL); in test [9] it was 1 µM (≈ 1.44 µg/mL); in test [22] it was 4 µM (≈ 5.77 µg/mL).

In the case of `CC[C@H](C)[C@H](NC(=O)[C@H](CC(C)C)NC(=O)[C@H](CC(C)C)NC(=O)[C@H](CC(=O)O)NC(=O)[C@H](CCCCN)NC(=O)[C@@H](NC(=O)[C@@H](NC(=O)CNC(=O)[C@H](CC(C)C)NC(=O)[C@H](CC(C)C)NC(=O)[C@@H](N)CO)[C@@H](C)O)C(C)C)C(=O)NCC(=O)N[C@@H](C)C(=O)NCC(=O)N[C@@H](CCCCN)C(=O)N[C@@H](CO)C(=O)N[C@@H](C)C(=O)N[C@@H](C)C(=O)N[C@@H](CCC(N)=O)C(=O)N[C@@H](CO)C(=O)N[C@H](C(=O)N[C@@H](CC(C)C)C(=O)N[C@@H](CCCCN)C(=O)NCC(=O)N[C@@H](CC(C)C)C(=O)N[C@@H](CO)C(=O)N[C@H]1CSSC[C@@H](C(=O)O)NC(=O)[C@H](CC(=O)O)NC(=O)[C@H](CCCCN)NC(=O)[C@H](CO)NC(=O)[C@H](CC(C)C)NC(=O)[C@H](CCCCN)NC1=O)C(C)C` [SLLGTVKDLLIGAGKSAAQSVLKGLSCKLSKDC], the MIC is at least 37.5 µM in test [23]; 19 µM (≈ 62.8 µg/mL) in [24]; at least 150 µM in [25]; 9.5 µM (≈ 31.4 µg/mL) in [26]; 9.5 µM (≈ 31.4 µg/mL) in test [27]; 19 µM (≈ 62.8 µg/mL) in test [9]. The molecule also registered an MIC in test [28] of at least 150 µM.

For the molecule `CC[C@H](C)[C@H](NC(=O)[C@H](CCCN=C(N)N)NC(=O)[C@H](CC(C)C)NC(=O)[C@H](C)NC(=O)[C@H](CO)NC(=O)CNC(=O)[C@H](CCSC)NC(=O)[C@@H](N)Cc1ccccc1)C(=O)N[C@@H](C)C(=O)N[C@@H](C)C(=O)N[C@@H](CCCCN)C(=O)N[C@H](C(=O)N[C@@H](CC(C)C)C(=O)N1CCC[C@H]1C(=O)N[C@@H](C)C(=O)N[C@@H](C)C(=O)N[C@@H](CC(C)C)C(=O)N[C@H]1CSSC[C@@H](C(=O)O)NC(=O)[C@H](CCCCN)NC(=O)[C@H](CCCCN)NC(=O)[C@H](Cc2ccccc2)NC(=O)[C@H]([C@@H](C)CC)NC(=O)[C@H](CCC(N)=O)NC1=O)C(C)C` [FMGSALRIAAKVLPAALCQIFKKC], the MIC in [29] is 2.42 µM (≈ 6.25 µg/mL); in test [24], 19.4 µM (≈ 50 µg/mL); in test [30], at least 38.8 µM; in test [31], 2.42 µM (≈ 6.25 µg/mL).

For `CC[C@H](C)[C@H](NC(=O)[C@H](C)NC(=O)[C@H](CO)NC(=O)[C@@H](NC(=O)[C@H](C)NC(=O)[C@@H](NC(=O)[C@@H]1CCCN1C(=O)[C@@H](NC(=O)[C@H](CCSC)NC(=O)CNC(=O)[C@H](CC(C)C)NC(=O)[C@@H](N)CC(C)C)[C@@H](C)CC)C(C)C)[C@@H](C)CC)C(=O)N[C@@H](CO)C(=O)N[C@@H](C)C(=O)N[C@@H](CC(C)C)C(=O)N[C@@H](CO)C(=O)N[C@@H](CCCCN)C(=O)N[C@@H](CC(C)C)C(N)=O` [LLGMIPVAISAISALSKL], the MIC was at least 71.2 µM in [32]; at least 100 µM in [33]; 100 µM (≈ 180 µg/mL) in test [34]; over 100 µM in [4]; at least 100 µM with Escherichia coli ML-35p; over 100 µM in [7]. Besides, the MIC was 25 µM (≈ 44.9 µg/mL) in [9]; over 100 µM in test [35]; at least 100 µM in test [36]; 17.8 µM (≈ 32 µg/mL) in test [37]; at least 100 µM in test [38].
